Assays:
K. pneumoniae = assay: Petrocci & Clarke antimicrobial laundry additive test, cotton fabric, Tide powder plus sanitizer; type: cell-based; settings: 30 ppm sanitizer (expressed as Cl2), mixture with Tide powder; for Percent Reduction of K. pneumonia on Fabric: cotton fabric
Experimental: Bioefficacy studies were performed using cotton fabric samples to compare monochloro dimethyl hydantoin (MCDMH) to trichloroisocyanuric acid (TCCA) and sodium dichloroisocyanurate (DCCA), two chlorine bleaches. Mixtures of Tide® powder, available from Procter and Gamble of Cincinnati, Ohio, and the sanitizers specified in Table 1 were prepared and thereafter dissolved in water. The sanitizers were completely dissolved in the water before testing. The mixtures were tested according to the known Petrocci & Clarke method (A. Petrocci and P. Clarke, Proposed Test Method for Antimicrobial Laundry Additives, Journal of the Association of Official Analytical Chemists, 52(4), 836-842 (1969)) against K. pneumoniae. The percent reduction of K. pneumonia on the fabric and on the wash water was determined.

[1] = system: Klebsiella pneumoniae ATCC 4352; assay: Simulated in-use laundry sanitation test (Petrocci and Clarke); type: cell-based; settings: pH 7.0, Example 6
Experimental: A simulated “in-use” laundry sanitation test, as described in Petrocci and Clarke, supra, was conducted to evaluate the activity of the samples listed in Table 3 below.
The test was performed as follows. Fabric swatches were inoculated and dried with ˜20,000,000 cfu test organism. (Staphylococcus aureus ATCC 6538, Klebsiella pneumoniae ATCC 4352). The swatches were exposed to a sample dilution for 10 minutes followed by neutralization and enumeration of survivors. The percent reduction of bacteria was calculated for the fabric swatches and wash water.
The sample dilutions were prepared as follows. Tide® powder and MCDMH were dissolved separately in water and mixed together. Then the mixture was adjusted to 150 ppm hard water. The Tide® powder mixture contained about 1.8 g of Tide® powder per liter of mixture.
The procedure in Example 5 was repeated with Klebsiella pneumonia ATCC 4352 only. The Tide® liquid sample was prepared by the same procedure as the Tide® powder sample described in Example 5. The Tide® liquid mixture contained about 1.8 g of Tide® liquid per liter of mixture.

| Molecule | Percent Reduction of K. pneumonia in Wash Water (K. pneumoniae) | Percent Reduction of K. pneumonia on Fabric (K. pneumoniae) | % Reduction in 10 Minutes - Kiebsiella Fabric ([1]; 5 ppm (expressed as Cl2)) | % Reduction in 10 Minutes - Kiebsiella Water ([1]; 5 ppm (expressed as Cl2)) | % Reduction in 10 Minutes - Kiebsiella Fabric ([1]; 10 ppm (expressed as Cl2)) | % Reduction in 10 Minutes - Kiebsiella Water ([1]; 10 ppm (expressed as Cl2)) | % Reduction in 10 Minutes - Kiebsiella Fabric ([1]; 20 ppm (expressed as Cl2)) | % Reduction in 10 Minutes - Kiebsiella Water ([1]; 20 ppm (expressed as Cl2)) |
| --- | --- | --- | --- | --- | --- | --- | --- | --- |
| monochloro-5,5-dimethyl hydantoin [MCDMH] | 99.76% | 99.60% | 99.99% | 100% | 100% | 100% | 100% | 100% |
| O=c1n(Cl)c(=O)n(Cl)c(=O)n1Cl [TCCA, trichloroisocyanuric acid] | 96.38% | 97.09% | – | – | – | – | – | – |
| O=c1nc([O-])n(Cl)c(=O)n1Cl.[Na+] [DCCA, sodium dichloroisocyanurate] | 87.50% | 96.36% | – | – | – | – | – | – |
